Measured values: PubChem BioAssay (NCI)
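Five concentrations, 48 hours, 96-well plates. At the GI50, growth is halved. TGI is the concentration that stops growth completely.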

Experiments:
Test in all cases: NCI tumour cell line growth inhibition, 48 h
MDA-N = tested on: MDA-N
DLD-1 colon = tested on: DLD-1 colon
SNB-78 CNS = tested on: SNB-78 CNS
HOP-18 NSCLC = tested on: HOP-18 NSCLC
XF 498 CNS = tested on: XF 498 CNS
DMS 114 small cell lung = tested on: DMS 114 small cell lung
LXFL 529 NSCLC = tested on: LXFL 529 NSCLC
DMS 273 small cell lung = tested on: DMS 273 small cell lung
RXF-631 renal = tested on: RXF-631 renal
P388/ADR leukemia = tested on: P388/ADR leukemia
P388 leukemia = tested on: P388 leukemia

`Oc1ccc(Cl)cc1Sc1cc(Cl)ccc1O` showed a TGI (MDA-N) of 26.1 µM.

`O=C1C(Cl)=C(Cl)C(=O)N1c1cccc(C(F)(F)F)c1` was tested, and the TGI (DLD-1 colon) was greater than 100 µM, the TGI (SNB-78 CNS) was greater than 100 µM and the TGI (HOP-18 NSCLC) was greater than 100 µM. The TGI (XF 498 CNS) was greater than 100 µM, the TGI (DMS 114 small cell lung) was greater than 100 µM and the TGI (LXFL 529 NSCLC) was greater than 100 µM. It also gave a TGI (DMS 273 small cell lung) greater than 100 µM and a TGI (RXF-631 renal) greater than 100 µM.

Work on `O=[N+]([O-])c1ccc(C2SCc3nc4ccccc4n32)cc1` (configuration not stated) yielded a TGI (DLD-1 colon) greater than 100 µM, a TGI (SNB-78 CNS) greater than 100 µM and a TGI (HOP-18 NSCLC) greater than 100 µM. It also gave a TGI (XF 498 CNS) of 80.6 µM, a TGI (DMS 114 small cell lung) greater than 100 µM and a TGI (LXFL 529 NSCLC) greater than 100 µM. For the same molecule, the TGI (DMS 273 small cell lung) was greater than 100 µM and the TGI (RXF-631 renal) was greater than 100 µM.

`CCC[CH2][Sn]([CH2]CCC)([O]C(=O)c1cc(F)ccc1F)[O]C(=O)c1cc(F)ccc1F` was tested, and the GI50 (DLD-1 colon) was 0.915 µM, the TGI (DLD-1 colon) was 2.16 µM and the GI50 (SNB-78 CNS) was 0.419 µM. The TGI (SNB-78 CNS) was 1.86 µM, the GI50 (HOP-18 NSCLC) was 2.21 µM and the TGI (HOP-18 NSCLC) was 3.67 µM. For the same molecule, the GI50 (XF 498 CNS) was 1.8 µM, the TGI (XF 498 CNS) was 3.21 µM and the GI50 (DMS 114 small cell lung) was 0.372 µM. The TGI (DMS 114 small cell lung) was 1.41 µM, the GI50 (LXFL 529 NSCLC) was 0.176 µM and the TGI (LXFL 529 NSCLC) was 0.491 µM. For the same molecule, the GI50 (DMS 273 small cell lung) was 1.2 µM, the TGI (DMS 273 small cell lung) was 2.45 µM and the GI50 (RXF-631 renal) was 0.154 µM. For the same molecule, the TGI (RXF-631 renal) was 0.363 µM.

Work on `Cc1ccc(C)c(NC(=O)C(=O)C2C(=O)N(c3ccccc3)N=C2N)c1` (configuration not stated) yielded a TGI (DLD-1 colon) greater than 100 µM, a TGI (SNB-78 CNS) greater than 100 µM and a TGI (HOP-18 NSCLC) greater than 100 µM. For the same molecule, the TGI (XF 498 CNS) was greater than 100 µM, the TGI (LXFL 529 NSCLC) was greater than 100 µM and the TGI (DMS 273 small cell lung) was greater than 100 µM. It also gave a TGI (RXF-631 renal) greater than 100 µM.

Molecule `O=C1NC2C3CC(OCc4ccccc4)(OCc4ccccc4)C2OC3O1` (configuration not stated) has a TGI (DLD-1 colon) greater than 50 µM, a TGI (HOP-18 NSCLC) greater than 50 µM and a TGI (XF 498 CNS) greater than 50 µM. It also gave a TGI (DMS 114 small cell lung) greater than 50 µM and a TGI (DMS 273 small cell lung) greater than 50 µM.

With `O=C(O)/C(Cl)=C(Cl)/C=N/NC(=O)c1cc2ccccc2cc1O` the TGI (DLD-1 colon) was greater than 100 µM, the TGI (SNB-78 CNS) was greater than 100 µM and the TGI (HOP-18 NSCLC) was 80.5 µM. The TGI (XF 498 CNS) was greater than 100 µM, the TGI (DMS 114 small cell lung) was 51.5 µM and the TGI (LXFL 529 NSCLC) was greater than 100 µM. It also gave a TGI (DMS 273 small cell lung) of 45.2 µM and a TGI (RXF-631 renal) greater than 100 µM.

In the case of `Cc1ccc(NC(=S)C#N)c(C)c1`, the TGI (MDA-N) is reported as greater than 100 µM.

`Cc1cc(Cl)ccc1N=C1NC(=O)C(CC(=O)Nc2cccc(C)c2C)S1` (configuration not stated) gave a TGI (DLD-1 colon) greater than 100 µM, a TGI (SNB-78 CNS) of 79.7 µM and a TGI (XF 498 CNS) of 39 µM. It also gave a TGI (DMS 114 small cell lung) of 66.6 µM, a TGI (DMS 273 small cell lung) of 81 µM and a TGI (RXF-631 renal) of 84.3 µM.

With `COC(=O)c1ccc(C(=O)OC)c2nc3cc(Cl)ccc3nc12` the TGI (DLD-1 colon) was greater than 100 µM, the TGI (HOP-18 NSCLC) was greater than 100 µM and the TGI (XF 498 CNS) was greater than 100 µM. The TGI (DMS 114 small cell lung) was greater than 100 µM, the TGI (LXFL 529 NSCLC) was greater than 100 µM and the TGI (DMS 273 small cell lung) was greater than 100 µM. The TGI (RXF-631 renal) was greater than 100 µM.

With `COc1cc(C2c3cc4c(cc3[C@@H](Nc3ccc([N+](=O)[O-])cc3)C3COC(=O)[C@H]23)OCO4)cc(OC)c1O` (some centres not stated) the GI50 (DLD-1 colon) was 3.15 µM, the TGI (DLD-1 colon) was 19.2 µM and the TGI (SNB-78 CNS) was greater than 71.5 µM. The TGI (P388/ADR leukemia) was 10.7 µM, the TGI (HOP-18 NSCLC) was 77.2 µM and the GI50 (XF 498 CNS) was 0.613 µM. For the same molecule, the TGI (XF 498 CNS) was 15 µM, the GI50 (DMS 114 small cell lung) was 0.614 µM and the TGI (DMS 114 small cell lung) was 6.26 µM. It also gave a TGI (LXFL 529 NSCLC) of 78.3 µM, a TGI (MDA-N) greater than 100 µM and a GI50 (DMS 273 small cell lung) of 0.274 µM. It also gave a TGI (DMS 273 small cell lung) of 5.65 µM, a TGI (P388 leukemia) greater than 100 µM and a TGI (RXF-631 renal) of 11.4 µM.

`Cn1c2c(c3ccccc3c1=O)C(=O)c1ccccc1-2` was tested, and the TGI (MDA-N) was greater than 100 µM.

In the case of `O=C(COC(=O)c1cccc2c(=O)c3ccccc3[nH]c12)Nc1ccc(Cl)cc1`, the TGI (DLD-1 colon) is reported as greater than 100 µM, the TGI (SNB-78 CNS) is reported as greater than 100 µM and the TGI (HOP-18 NSCLC) is reported as greater than 100 µM. It also gave a TGI (XF 498 CNS) of 97.3 µM, a TGI (DMS 114 small cell lung) greater than 100 µM and a TGI (LXFL 529 NSCLC) greater than 100 µM.

`CCOC(=O)/C(C#N)=C\Sc1ccccc1` showed a TGI (DLD-1 colon) of 45.5 µM, a TGI (SNB-78 CNS) greater than 100 µM and a TGI (HOP-18 NSCLC) greater than 100 µM. The TGI (XF 498 CNS) was greater than 100 µM, the TGI (DMS 114 small cell lung) was 33.9 µM and the TGI (LXFL 529 NSCLC) was 57.3 µM. The TGI (DMS 273 small cell lung) was 41.9 µM and the TGI (RXF-631 renal) was 53.2 µM.
